According to patent US20140303185A1, “NOVEL POLYMORPHS OF VILAZODONE HYDROCHLORIDE” (ORCHID CHEMICALS & PHARMACEUTICALS LIMITED, priority 2013, published 2014):
Structures can show the parent of a compound that is named as a salt.

Test: Storage stability of Vilazodone HCl polymorphic forms
Format: physicochemical
Details: for storage stability: at accelerated condition (tables 3 & 4)
[1] = Stability at 40 ± 2° C. & 75 ± 5% RH, Final
[2] = Stability at 40 ± 2° C. & 75 ± 5% RH, Final, hydrochloride
[3] = Stability at 40 ± 2° C. & 75 ± 5% RH, Initial, hydrochloride
[4] = Stability at 60 ± 2° C., Final, hydrochloride
[5] = Stability at 60 ± 2° C., Initial, hydrochloride

SMILES	Description [1]	Purity [1] [%]	Moisture content [2] [%]	Moisture content [3] [%]	Purity [3] [%]	Description (Stability at 60 ± 2° C., Final)	Moisture content [4] [%]	Purity [4] [%]	Moisture content [5] [%]	Purity [5] [%]	storage stability	Description [3]	Description [5]
N#Cc1ccc2[nH]cc(CCCCN3CCN(c4ccc5oc(C(N)=O)cc5c4)CC3)c2c1 [Form A, 1-[4-(5-cyanoindol-3-yl)butyl]-4-(2-carbamoylbenzofuran-5-yl) piperazine hydrochloride]	white to off	99.60	1.29	1.10	99.65	white to off	0.76	99.65	1.10	99.65	good storage stability		
N#Cc1ccc2[nH]cc(CCCCN3CCN(c4ccc5oc(C(N)=O)cc5c4)CC3)c2c1 [Form B, 1-[4-(5-cyanoindol-3-yl)butyl]-4-(2-carbamoylbenzofuran-5-yl) piperazine hydrochloride]	white to off	99.60	1.91	2.06	99.62	white to off	0.81	99.60	2.06	99.62	good storage stability	white to off	white to off
